In series [1] the test system is HUVEC human umbilical vein endothelial cells. Put plainly: MTS cytotoxicity assay, HUVEC normal cells. The format is cell-based. Particulars: for cytotoxic effect on HUVEC: 24 h. As for the experimental part:
(§1) Therefore, the precursor acids 2a–c and corresponding pyrrolo[1,2-b]pyridazines 5a–c,f were tested for their potential cytotoxic activity. During the assays, increasing concentrations of the compounds, ranging from […], were added for 24 h or 48 h to cancer LoVo, SK-OV-3, MCF-7, and the reference HUVEC cells, previously cultured for 24 h in 96-well flat bottom plates. […] Then, MTS reagent was added, and cells were incubated for 4 h at 37 °C in a 5% CO2 humidified atmosphere. The absorbance values were spectrophotometrically read to a Dynex ELISA reader at λ = […].
(§2) For the evaluation of the in vitro potential anti-proliferative effects of treatments with the new compounds under study against solid tumor-derived cells, several compound-mediated cytotoxicity assays were performed on three adherent tumor standardized cell lines, and normal human endothelial cells, used as control: the MCF-7 human breast adenocarcinoma and SK-OV-3 human ovary adenocarcinoma cell lines were provided from European Collection of Authenticated Cell Cultures (ECACC), while LoVo, human colorectal adenocarcinoma cell line, and HUVEC human umbilical vein endothelial cells were purchased from American Type Culture Collection (ATCC).
(§3) Adherent cells were cultivated in DMEM/F12 medium added with 2 mM L-glutamine and 10% fetal bovine serum, 100 units/mL penicillin, 100 µg/mL streptomycin (Sigma Aldrich, St. Louis, MO, USA) and incubated at 37 °C in 5% CO2 humidified atmosphere. The stock solutions for cell treatments were prepared by dissolving the synthesized compounds in a minimum amount of DMSO. Working dilutions were prepared from the stock solutions in culture medium before each treatment assay. After 24 h, when cell cultures achieved around 70% confluence, treatments were applied for various periods of time with different concentrations of synthesized compounds or oncolytic drugs, used as positive controls.
(§4) Therefore, cell cultures treated with the new compounds or oncolytic drugs for 24 h or 48 h were further subjected to a colorimetric cell viability method, the MTS assay. The absorbance of probes was read, data were calculated, and percentages of cell viability were assessed.
(§5) The evaluation of the compound-induced cytotoxicity was made using the CellTiter 96 Aqueous One Solution Cell Proliferation Assay (Promega, Madison, WI, USA), a reagent that contains both MTS (3-(4,5-dimethylthiazol-2-yl)-5-(3-carboxymethoxyphenyl)-2-(4-sulfophenyl)-2H-tetrazolium, inner salt) and PES ([…], a cationic dye with high chemical stability that binds to MTS and forms a stable solution).
(§6) Briefly, 1.5 × 10^4 cancer or normal cells were cultured in 100 µL/well for 24 h. After the culture supernatants were discarded, cells were treated for additional 24 h or 48 h with increasing concentrations of new compounds or oncolytic drugs. Following the specific treatments, in each well a volume of 20 µL of coloring mixture reagent of MTS and PES was added, and then the plates were incubated with mild agitation every 20 min for 4 h at 37 °C. The color developed during incubation was spectrophotometrically quantified at λ = 492 nm using a Dynex ELISA reader (DYNEX Technologies—MRS, Chantilly, VA, USA).
(§7) Data were expressed as percentages of cell viability of the treated cells, and were calculated and compared to the untreated cells (considered 100% viable), using the formula:Cell viability (%) = (T − B)/(U − B) × 100 where T = absorbance of treated cells, U = absorbance of untreated cells, and B = absorbance of culture medium (blank), for λ = 492 nm.
(§8) The cell viability data were expressed as the mean values ± standard deviations (SD) of three different experiments (n = 3). […] Moreover, a parallel experiment was performed in the absence of cells, with all the concentrations of the compounds being tested for their potential interference with MTS reagents; then, their absorbance values were extracted during calculations.

For series [2], the system named is LoVo colon adenocarcinoma cells. The experiment in a line: MTS cytotoxicity assay, LoVo. In kind it is cell-based, human. The conditions noted are these: Homo sapiens. Here is the method:
as §1, §2, §3, §4, §5, §6, §7, §8
Background: Formazan colour is commonly taken as a measure of viable cells.

The test system of series [3] is MCF-7 breast adenocarcinoma cells. The experiment in a line: MTS cytotoxicity assay, MCF-7. In kind it is cell-based, human. Particulars: Homo sapiens, MCF7; for viability at 200 µM: MCF-7, 200 μM; for viability at 200 µM / viability at 40 µM: read-out: cell viability; for viability at 40 µM: MCF-7, 40 μM. As for the experimental part:
as §1, §2, §3, §4
as §5, with “solution). The assay is based on the ability of the metabolically active cells to reduce the yellow tetrazolium salt MTS to a compound that is soluble in culture medium, the colored formazan, followed by the spectrophotometric evaluation of its concentration.” for “solution).”
as §6, §7
The cell viability data were expressed as the mean values ± standard deviations (SD) of three different experiments (n = 3). […]

For series [4], the system named is LoVo colon adenocarcinoma cells. The experiment in a line: MTS cytotoxicity assay, LoVo. The format is cell-based. Particulars: Homo sapiens, 200 μM, read-out: cell viability.
Series [5] is described as follows: MTS cytotoxicity assay, HUVEC normal cells. The format is cell-based, human. The conditions noted are these: human, HUVEC human umbilical vein endothelial cells (normal cells), 40 μM, 48 h, read-out: cell viability. Here is the method:
as §1, §2, §3, §4, §5, §6, §7, §8

Series [6] concerns SK-OV-3 ovary adenocarcinoma cells. The experiment in a line: MTS cytotoxicity assay, SK-OV-3. The conditions noted are these: Homo sapiens, SK-OV-3, 40 μM, read-out: cell viability. The format is cell-based.
The test system is the same in series [7]. The experiment in a line: MTS cytotoxicity assay, SK-OV-3. In kind it is cell-based, human. The conditions noted are these: Homo sapiens. As for the experimental part:
as §1, §2, §3, §4, §5, §6, §7, §8

Another series concerns Artemia nauplii. On the set-up: method as in PMID 16445096. Particulars: at 24 and 48 h; cited from earlier work.
[8] abbreviates: MCF-7, 24 h, read-out: IC50 MCF-7 24 h.
[9] abbreviates: MCF-7, 48 h, read-out: IC50 MCF-7 48 h.

Read-outs that look alike come from different tables or passages of the source.

Broadly, the IC50 is the point on the concentration scale where inhibition reaches its midpoint. In general, viability refers to the share of living cells, or the viability signal relative to a control. For `O=c1[nH]cc(F)c(=O)[nH]1` [Compound 5-FU, 5-fluorouracil, reference compound], the cell viability result in series [1] (200 μM, 48 h) is on record as “no significant effect”. Also, the “cytotoxic effect on HUVEC” value in series [1] is listed as “no remarkable cytotoxic effects”. The IC50 came to 76.1 ± 3.09 µM in series [2] (24 h, read-out: IC50 LoVo 24 h); 66.2 ± 2.66 µM in series [2] (48 h, read-out: IC50 LoVo 48 h); 80.6 ± 4.39 µM in series [3] (setting [8]); 60.4 ± 5.04 µM in series [3] (setting [9]). Also, the viability at 200 µM was determined as 45.5% in series [3] (24 h), 18.2% in series [3] (48 h (drug control)), 42.3% in series [4] (24 h) and 28.7% in series [4] (48 h).

As to `COc1cccc2c1C(=O)c1c(O)c3c(c(O)c1C2=O)C[C@@](O)(C(=O)CO)C[C@@H]3O[C@H]1C[C@H](N)[C@H](O)[C@H](C)O1` [DOX, doxorubicin, reference compound], in series [1], the “cytotoxic effect on HUVEC” value is recorded as “no remarkable cytotoxic effects”. Further, the viability at 48 h, 40 µM in series [5] was determined as 81.7%. Further, the viability at 40 µM in series [6] (24 h) was 68.6%; in series [6] (48 h), 35.2%; in series [3] (24 h), 41.8%; in series [3] (48 h), 36.7%. Further, the IC50 in series [3] (setting [8]) was 14.8 ± 4 µM; in series [3] (setting [9]), 11.6 ± 0.53 µM; in series [7] (SK-OV-3, 24 h, read-out: IC50 Sk-OV-3 24 h), 55.4 ± 2.98 µM; in series [7] (SK-OV-3, 48 h, read-out: IC50 Sk-OV-3 48 h), 12.1 ± 0.32 µM.

As usually defined, the LC50 is the concentration lethal to half of the exposed cells or organisms. For the compound `O=c1n(Cl)c(=O)n(Cl)c(=O)n1Cl` [TCIC, trichloroisocyanuric acid], the 50% lethal concentration (LC50) in the series with Artemia nauplii is less than 1 µM.

Regarding `OC[P+](CO)(CO)CO` [THPC, tetrakis(hydroxymethyl) phosphonium chloride], in the series with Artemia nauplii, the LC50 is less than 1 µM.

Source of the values: publication PMC10380841, “Synthesis, Characterization and Cytotoxic Evaluation of New Pyrrolo[1,2-b]pyridazines Obtained via Mesoionic Oxazolo-Pyridazinones” (International Journal of Molecular Sciences, 2023).
